From patent publication US10766869B2, “Triazoles for the treatment of demyelinating dieases” (Vertex Pharmaceuticals Incorporated, priority 2015, dated 2020)
Where two headings read alike, the source gives them in different places.

Tested on: primary rat mixed cortical cells
Experiment: In vitro myelination assay (MBP positive myelin strands, fold myelin pixels above background)
Format: cell-based
Settings: Rattus norvegicus; for fold induction at 1 µM: 1.0 μM compound; for fold induction at 10 µM: 10.0 μM compound
Text: In Vitro Myelination Assay
Compounds were screened for their ability to induce myelination using a primary rat mixed cortical cell culture assay, which contains neurons, oligodendrocyte precursor cells, oligodendrocytes, astrocytes and microglia. The assay quantifies myelination by measuring myelin basic protein (MBP) immunofluorescent positive myelin strands from images taken using a Cellomics Array Scan (model Arrayscan VTI HCS Reader) or a Molecular Devices Image Xpress (model IXM XL) high content imager. The myelin strands were quantitated using a custom created myelin detection software program. Test compounds were dissolved in DMSO to make a 10 mM initial stock solution. Dilutions were made in myelination medium to obtain the final solutions for the assay and were tested in primary rat mixed cortical cells at selected doses.
Primary rat mixed cortical cells were prepared from harvested cerebral cortices from postnatal day 1 (P1) rats (P1 Rat CD® IGS pups) were purchased from Charles River) in Complete Dissociation Medium, wherein the meninges were removed and the cortical tissue chopped with a razor blade into ˜1 mm^3 pieces. Tissue from 1-3 pups was collected and placed into 15 ml conical tubes in a total volume of 5 ml of Complete Dissociation Medium. Activated papain (3 ml) was added to each 15 ml conical tube and tissue was incubated at 37° C. for 30 minutes. After the 30 minute incubation, DNase (Sigma D4527; 75 μl of a 1 mg/ml stock) was added to each tube, followed by mechanical trituration using a 2 ml serological pipette and autopipettor to gently dissociate the tissue. Following trituration, larger tissue pieces were allowed to settle by gravity, and the supernatant containing dissociated cells was transferred to a 50 ml conical tube with 4 ml of trypsin inhibitor. Cells were pelleted by centrifugation, resuspended in myelination medium and filtered through a 40 μm filter. Cells were then seeded in 96-well plates (BD Biosciences, Black, PDL-coated, Cat. No. 356640) at 87,500-95,000 cells/well in a final volume of 200 μl of Myelination Medium in the presence or absence of compound and cultured for 14 days in a humidified 37° C. incubator with 5% CO2. Half the medium was removed and replaced with fresh medium containing 1× compound on days 6 and 10. Using a Biotek automatic plate washer (model Biomek® FXP Laboratory Automation Workstation), cells were fixed with 4% paraformaldehyde on day 14, washed with PBS and blocked in 5% normal goat serum (Vector Laboratories, S-1000) in 0.1% PBS-TritonX-100 (PBST) for 1 hour. Cells were stained with 1:500 anti-MBP (Covance, cat # SMI99) primary antibody in 1% normal goat serum in 0.1% PBST for 2 hours at room temperature followed by 2 washes with PBST. A final incubation in secondary antibody (1:1000, Invitrogen, Alexa-488 anti-mouse IgG2b) and 1:10,000 Hoechst dye in 1% normal goat serum in 0.1% PBST was performed for 2 hours at room temperature. Plates were washed with PBS and then scanned on a Cellomics Array Scan using a 10× objective (25 images per well) or the Image Xpress using a 10× objective (9 image per well). Images were analyzed using Vertex myelin detection software (described below) to quantify total MBP myelin pixels per well. Fold myelin pixels above background at two concentrations (1.0 μM and 10.0 μM) relative to baseline of no added compound are reported below in Table 4. Standard deviation for each compound concentration was calculated using all replicates and using a standard deviation formula commonly used in the art.
One of skill in the art would recognize that for this type of primary neuronal mixed cell assay variability between different assay runs is to be expected even though the protocol is the same for each assay run. For instance, variability may be due to small differences in cell viability, cell density, age of the animals, etc.
Vertex Myelin Detection Software: […]

[1] = relative to baseline of no added compound, read-out: Fold myelin pixels above background
[2] = relative to baseline of no added compound, read-out: Fold myelin pixels above background, 1.0 μM
[3] = relative to baseline of no added compound, read-out: Fold myelin pixels above background, 10.0 μM
[4] = read-out: Fold myelin pixels above background relative to baseline of no added compound

| SMILES | fold induction at 1 µM [2] | fold induction at 10 µM [3] | fold induction at 1 µM [4] | fold induction at 10 µM [4] | further results |
| --- | --- | --- | --- | --- | --- |
| Cc1cc(Nc2ncn(-c3cc(F)cc(F)c3)n2)cc(C2CCCN(C3COC3)C2)c1 (centres unmarked) [Compound 408, 1-(3,5-difluorophenyl)-N-[3-methyl-5-[1-(oxetan-3-yl)-3-piperidyl]phenyl]-1,2,4-triazol-3-amine] | – | – | – | – | fold induction at 1 µM [1]: 100 to 1000; fold induction at 10 µM [1]: 10 to 100 |
| CN1CCN(c2cc(Nc3ncn(-c4ccccc4)n3)cc(Cl)n2)CC1 [Compound 367, 2-chloro-6-(4-methylpiperazin-1-yl)-N-(1-phenyl-1,2,4-triazol-3-yl)pyridin-4-amine] | 100 to 1000 | 100 to 1000 | – | – | – |
| COCCNC1CN(c2cc(C)cc(Nc3ncn(-c4cc(F)cc(F)c4)n3)c2)C1 [Compound 816, 1-(3,5-difluorophenyl)-N-[3-[3-(2-methoxyethylamino)azetidin-1-yl]-5-methyl-phenyl]-1,2,4-triazol-3-amine] | – | – | 1 to 10 | 1 to 10 | – |
| Cc1cc(Nc2ncn(-c3cc(F)cc(F)c3)n2)cc(C2CCN(C3COC3)CC2)c1 [Compound 221, 1-(3,5-difluorophenyl)-N-[3-methyl-5-[1-(oxetan-3-yl)-4-piperidyl]phenyl]-1,2,4-triazol-3-amine] | 1 to 10 | 100 to 1000 | – | – | – |
| Cc1cc(Nc2ncn(-c3cc(F)cc(F)c3)n2)cc(N2CCN3CC(F)(F)C[C@H]3C2)c1 [Compound 831, N-[3-[(8aS)-7,7-difluoro-13,4,6,8,8a-hexahydropyrrolo[1,2-a]pyrazin-2-yl]-5-methyl-phenyl]-1-(3,5-difluorophenyl)-1,2,4-triazol-3-amine] | – | – | 10 to 100 | 10 to 100 | – |
| Cc1cc(Nc2ncn(-c3ccccc3)n2)cc(N2CCN(C3CCOC3C)CC2)c1 (centres unmarked) [Compound 127, N-[3-methyl-5-[4-(2-methyltetrahydrofuran-3-yl)piperazin-1-yl]phenyl]-1-phenyl-1,2,4-triazol-3-amine] | 1000 to 10000 | 1 to 10 | – | – | – |
| Cc1cc(Nc2ncn(-c3cc(F)cc(F)c3)n2)cc(N2CCC(N3CC(F)(F)C3)CC2)c1 [Compound 745, N-[3-[4-(3,3-difluoroazetidin-1-yl)-1-piperidyl]-5-methyl-phenyl]-1-(3,5-difluorophenyl)-1,2,4-triazol-3-amine] | – | – | – | – | fold induction at 1 µM [1]: 10 to 100; fold induction at 10 µM [1]: ≤ 1 |
| Cc1cc(Nc2ncn(-c3ccccc3)n2)cc(N2CC(CC(C)C)N3CCC[C@@H]3C2)c1 (stereo partly drawn) [Compound 152, N-[3-[(8aR)-4-isobutyl-3,4,6,7,8,8a-hexahydro-1H-pyrrolo[1,2-a]pyrazin-2-yl]-5-methyl-phenyl]-1-phenyl-1,2,4-triazol-3-amine] | ≤ 1 | ≤ 1 | – | – | – |
| Cc1cc(Nc2ncn(-c3ccccc3)n2)cc(Nc2ncc(C)o2)c1 [Compound 1049, 5-methyl-N1-(5-methyloxazol-2-yl)-N3-(1-phenyl-1,2,4-triazol-3-yl)benzene-1,3-diamine] | – | – | 1 to 10 | 10 to 100 | – |
| Cc1cc(Nc2ncn(-c3cc(F)cc(F)c3)n2)cc(NC2CCN(C3CCC3)CC2)c1 [Compound 1070, N1-(1-cyclobutyl-4-piperidyl)-N3-[1-(3,5-difluorophenyl)-1,2,4-triazol-3-yl]-5-methyl-benzene-1,3-diamine] | – | – | 10 to 100 | ≤ 1 | – |
| [2H]C1([2H])N(c2cc(Nc3ncn(-c4cc(F)cc(F)c4)n3)cc(C(F)(F)F)c2)C([2H])([2H])C([2H])([2H])C([2H])([2H])C1([2H])[2H] [Compound 1032, N-[3-(2,2,3,3,4,4,5,5,6,6-decadeuterio-1-piperidyl)-5-(trifluoromethyl)phenyl]-1-(3,5-difluorophenyl)-1,2,4-triazol-3-amine] | – | – | 10 to 100 | 1 to 10 | – |
| Cc1cc(Nc2ncn(-c3cc(F)cc(F)c3)n2)cc(N2CCN(C3CCOC3)CC2)c1 (centres unmarked) [Compound 137, 1-(3,5-difluorophenyl)-N-[3-methyl-5-(4-tetrahydrofuran-3-ylpiperazin-1-yl)phenyl]-1,2,4-triazol-3-amine] | 1000 to 10000 | 100 to 1000 | – | – | – |
| Cc1cc(Nc2ncn(-c3cc(F)cc(F)c3)n2)cc(N2CCN(C3COC3)CC2)n1 [Compound 1, N-[1-(3,5-difluorophenyl)-1,2,4-triazol-3-yl]-2-methyl-6-[4-(oxetan-3-yl)piperazin-1-yl]pyridin-4-amine] | 1000 to 10000 | 100 to 1000 | – | – | – |
| Cc1cc(Nc2ncn(-c3ccccc3)n2)cc(N2CCN(C3CCC3)CC2)c1 [Compound 290, N-[3-(4-cyclobutylpiperazin-1-yl)-5-methyl-phenyl]-1-phenyl-1,2,4-triazol-3-amine] | 1000 to 10000 | 1000 to 10000 | – | – | – |
| Fc1cc(Nc2ncn(-c3ccccc3F)n2)cc(N2CCOCC2)c1 [Compound 49, N-(3-fluoro-5-morpholino-phenyl)-1-(2-fluorophenyl)-1,2,4-triazol-3-amine] | ≤ 1 | 10 to 100 | – | – | – |
| Fc1cc(-n2cnc(Nc3cc(C4CC4)cc(N4CCN(C5COC5)CC4)c3)n2)ccn1 [Compound 184, N-[3-cyclopropyl-5-[4-(oxetan-3-yl)piperazin-1-yl]phenyl]-1-(2-fluoro-4-pyridyl)-1,2,4-triazol-3-amine] | 10 to 100 | 1 to 10 | – | – | – |
| N#Cc1cc(Nc2ncn(-c3cccnc3)n2)cc(N2CCN(C3COC3)CC2)c1 [Compound 842, 3-[4-(oxetan-3-yl)piperazin-1-yl]-5-[[1-(3-pyridyl)-1,2,4-triazol-3-yl]amino]benzonitrile] | – | – | 1 to 10 | ≤ 1 | – |
| Cc1cc(Nc2ncn(-c3ccc(F)cc3)n2)cc(N2CC(N3CCOCC3)C2)c1 [Compound 606, 1-(4-fluorophenyl)-N-[3-methyl-5-(3-morpholinoazetidin-1-yl)phenyl]-1,2,4-triazol-3-amine] | – | – | – | – | fold induction at 1 µM [1]: 1 to 10; fold induction at 10 µM [1]: 1 to 10 |
| Cc1cc(Nc2ncn(-c3cc(F)cc(F)c3)n2)cc(N2CCN(C3CCN(C)CC3)CC2)c1 [Compound 956, 1-(3,5-difluorophenyl)-N-[3-methyl-5-[4-(1-methyl-4-piperidyl)piperazin-1-yl]phenyl]-1,2,4-triazol-3-amine] | – | – | ≤ 1 | ≤ 1 | – |
| Fc1cc(Cl)cc(-n2cnc(Nc3cc(C4CC4)cc(N4CCN(C5COC5)CC4)c3)n2)c1 [Compound 400, 1-(3-chloro-5-fluoro-phenyl)-N-[3-cyclopropyl-5-[4-(oxetan-3-yl)piperazin-1-yl]phenyl]-1,2,4-triazol-3-amine] | – | – | – | – | fold induction at 1 µM [1]: 1000 to 10000; fold induction at 10 µM [1]: ≤ 1 |
| Cc1cc(Nc2ncn(-c3cc(F)cc(F)c3)n2)cc(N2CC(CC#N)C2)c1 [Compound 921, 2-[1-[3-[[1-(3,5-difluorophenyl)-1,2,4-triazol-3-yl]amino]-5-methyl-phenyl]azetidin-3-yl]acetonitrile] | – | – | 10 to 100 | 1 to 10 | – |
| Cc1cc(Nc2ncn(-c3cc(F)cc(F)c3)n2)cc(N2CCC(N3CCC(O)CC3)CC2)c1 [Compound 879, 1-[1-[3-[[1-(3,5-difluorophenyl)-1,2,4-triazol-3-yl]amino]-5-methyl-phenyl]-4-piperidyl]piperidin-4-ol] | – | – | ≤ 1 | ≤ 1 | – |
